Assay results taken from US9266904B2, “6-bridged heteroaryldihydropyrimidines for the treatment and prophylaxis of hepatitis B virus infection” (priority 2013, dated 2016).
pEC50: −log10 of the molar value. In brackets after ≈: the same amount, converted by molar mass.

Legend:
[1] = tested on: CYP3A4; conditions: human, 24 h
Description: Human cryopreserved hepatocytes (Life Technologies, Carlsbad, USA) were thawed and cultured in collagen I coated 96-well plates with a density of 52,000 cells/well. After attachment, medium was changed and cells were pre-cultured overnight in hepatocyte maintenance medium (HMM; Lonza, Switzerland).
Test compounds were dosed to the cells next morning at an indicated concentration (up to 10 μM) in HMM culture media containing gentamycin and a constant 0.1% DMSO. Similarly, dilutions of the positive inducer compounds omeprazole (prototypical inducer of human CYP1A2; final concentrations: 1 and 10 μM), phenobarbital (prototypical inducer of human CYP2B6; final concentrations: 100 and 1000 μM) and rifampicin (prototypical inducer of human CYP3A4; final concentrations: 1 and 10 μM) were prepared from 1000 fold DMSO stock solutions in HMM containing gentamycin. Medium change was then performed and cells were exposed for 24 hours to test compounds, positive inducer compounds, or vehicle (0.1% DMSO), respectively.
At the end of the compound exposure period, medium was removed and cells lysed using 100 μL/well MagNA Pure LC RNA isolation tissue lysis buffer (Roche Diagnostics AG, Rotkreuz, Switzerland). Plates were then sealed and frozen at −80° C. until further workup.
mRNA isolation was performed using the MagNA Pure 96 system (Roche Diagnostics AG, Rotkreuz, Switzerland) and the respective cellular RNA large volume kit (Roche Diagnostics AG, Rotkreuz, Switzerland) from thawed samples diluted 1:1 with PBS. The volume of the cell lysis and an elution volume of 100 μL were used. 20 μL of the resulting mRNA suspension was then used for reverse transcription using 20 μL of the transcript or first stand cDNA synthesis kit (Roche prime Supply, Mannheim, Germany). The resulting cDNA was diluted with 40 μL of H2O before using for qRT-PCR. qRT-PCR was performed by using the forward and the reverse primer, the corresponding UPL (all from Microsynth, Balgach, Switzerland) and the Taqman Fast advanced master mix (Applied Biosystems), on an ABI 7900 machine (Applied Biosystems).
qRT-PCR Ct-values for the respective P450s were put into relation to the Ct-value of RN18S1 (microsynth, Balgach, Switzerland) of the same sample. Doing so, a respective Δct-value was calculated. Using the average of all Δct-values for the vehicle control samples, a ΔΔct-value was calculated for each sample (ΔΔct-value(sample)=Δct-value(sample)−average of Δct-value of all vehicle controls). The fold induction of the respective sample was calculated as 2^(−ΔΔct). The individual fold induction values were then averaged per treatment condition (usually n=3 biological replicates).
Relative induction values to the respective positive inducer compound condition (10 μM omeprazole for CYP1A2; 1000 μM Phenobarbital for CYP2B6; 10 μM rifampicin for CYP3A4) were then calculated from the fold induction values as follows: Relative induction(%)=100×(T−V)/(P−V)
T: fold induction of test compound condition
P: fold induction of positive inducer compound
V: fold induction of vehicle controls

[2] = Lyophilisation solubility assay (Lysa); assay type: physicochemical; conditions: pH 6.5, aqueous buffer, thermodynamic from solid
In short: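 DMSO was evaporated from 10 mM stocks, and residues were taken up in 0.05 M phosphate buffer pH 6.5, stirred 1 h, shaken 2 h and left overnight. Filtrates were quantified by UV or HPLC-UV against a four-point calibration, in duplicate. Values are in μg/ml, with a lower-bound value when >80% dissolved.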

[3] = tested on: HBV replication in HepG2.2.15 cells; assay: Anti-HBV activity in vitro in HepG2.2.15 cells (extracellular HBV DNA by qPCR); assay type: cell-based; conditions: Hepatitis B virus, HepG2.2.15, Anti-HBV activity in HepG2.2.15 cells; read-out: EC50
In short: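 EC50 is derived from qPCR of extracellular viral DNA in culture supernatant after 5-day compound exposure. Cells (HepG2.2.15, stably carrying the HBV genome) were plated and incubated overnight at 37 °C before half-log dilution series were added at 0.5% final DMSO.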

[4] = Human microsomal clearance assay; assay type: in vitro ADME; conditions: human, 1 μM, pH 7.4
In short: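 Liver microsomes (0.5 mg/mL protein) were incubated with 1 μM compound at 37 °C, pH 7.4 phosphate, with an NADPH-regenerating system. Samples at 0-30 min were quenched and measured by LC-MS/MS for parent loss. No-NADPH controls were included.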

[5] = Cytotoxicity (CCK-8 cell viability) and selectivity index; assay type: cell-based, human; conditions: human, HepDE19 cells; cytotoxicity, concentration resulting in death of 50% of host cells
In short: (§1)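 HepDE19 cells (5×10^3/well) were treated with compounds as for the EC50 runs and, after 5 days, given CCK-8 for 2 h at 37° C. Absorbance was read at OD450 and OD630, and CC50 was taken as the concentration killing 50% of host cells.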

[6] = tested on: HepDE19 cells; assay: as above; assay type: cell-based, human; conditions: CC50 value/EC50 value
In short: as §1

Structure (SMILES) | % of Positive control (10 μM Rifampicin) [1] [%] | solubility thermodynamic [2] [µg/mL] | pEC50 [3] | CLh [4] [mL/min/kg] | CC50 at 5 days [5] [nM] | Selectivity index (CC50/EC50) [6]
CCOC(=O)C1=C(CN2[C@@H]3COC[C@H]2C[C@H](CC(=O)O)C3)NC(c2nccs2)=N[C@H]1c1cccc(F)c1Cl [Example 66, Exo-2-[(1S,5R)-9-[[(4R)-4-(2-chloro-3-fluoro-phenyl)-5-ethoxycarbonyl-2-thiazol-2-yl-1,4-dihydropyrimidin-6-yl]methyl]-3-oxa-9-azabicyclo[3.3.1]nonan-7-yl]acetic acid] | 6.2 | 390 (≈ 693 µM) | 8.44 | 3.2 | – | –
COC(=O)C1=C(CN2[C@@H]3C[C@H](CC(=O)O)C[C@H]2C(F)(F)C3)NC(c2nccs2)=N[C@H]1c1cccc(F)c1Cl [Example 88, 2-[(1R,3S,5S)-8-[[(4R)-4-(2-chloro-3-fluoro-phenyl)-5-methoxycarbonyl-2-thiazol-2-yl-1,4-dihydropyrimidin-6-yl]methyl]-6,6-difluoro-8-azabicyclo[3.2.1]octan-3-yl]acetic acid] | 39 | 120 (≈ 211 µM) | 8.89 | 0.2 | 52000 | 39662
COC(=O)C1=C(CN2C3COCC2CC(CC(=O)O)C3)NC(c2nccs2)=N[C@H]1c1ccc(F)cc1Cl (stereo partly drawn) [Example 24, (R)-6-(7-Carboxymethyl-3-oxa-9-aza-bicyclo[3.3.1]non-9-ylmethyl)-4-(2-chloro-4-fluoro-phenyl)-2-thiazol-2-yl-1,4-dihydro-pyrimidine-5-carboxylic acid methyl ester] | 29 | > 621 | 7.89 | 2.6 | > 100000 | >7692
CCOC(=O)C1=C(CN2[C@@H]3COC[C@H]2C[C@H](CC(=O)O)C3)NC(c2nccs2)=N[C@H]1c1ccc(F)c(F)c1Br [Example 80, Exo-2-[(1S,5R)-9-[[(4R)-4-(2-bromo-3,4-difluoro-phenyl)-5-ethoxycarbonyl-2-thiazol-2-yl-1,4-dihydropyrimidin-6-yl]methyl]-3-oxa-9-azabicyclo[3.3.1]nonan-7-yl]acetic acid] | 35 | 221 (≈ 353 µM) | 8.77 | 4.6 | 38000 | 22394
COC(=O)C1=C(CN2C3COCC2CC(NC(C)=O)C3)NC(c2nccs2)=N[C@H]1c1ccc(F)cc1Cl (stereo partly drawn) [Example 35, (R)-6-(7-Acetylamino-3-oxa-9-aza-bicyclo[3.3.1]non-9-ylmethyl)-4-(2-chloro-4-fluoro-phenyl)-2-thiazol-2-yl-1,4-dihydro-pyrimidine-5-carboxylic acid methyl ester] | 20 | – | 8.22 | 6.4 | 50000 | 7813
COC(=O)C1=C(CN2[C@@H]3COC[C@H]2C[C@@H](NS(N)(=O)=O)C3)NC(c2nccs2)=N[C@H]1c1ccc(F)cc1Cl [Example 56, Methyl (4R)-4-(2-chloro-4-fluoro-phenyl)-6-[[(1R,5S)-7-endo-(sulfamoylamino)-3-oxa-9-azabicyclo[3.3.1]nonan-9-yl]methyl]-2-thiazol-2-yl-1,4-dihydropyrimidine-5-carboxylate] | 23 | – | 8.36 | 6.1 | 43000 | 9766
CCOC(=O)C1=C(CN2[C@@H]3COC[C@H]2C[C@H](CC(=O)O)C3)NC(c2nccs2)=N[C@H]1c1ccc(F)c(F)c1Cl [Example 69, Exo-2-[(1S,5R)-9-[[(4R)-4-(2-chloro-3,4-difluoro-phenyl)-5-ethoxycarbonyl-2-thiazol-2-yl-1,4-dihydropyrimidin-6-yl]methyl]-3-oxa-9-azabicyclo[3.3.1]nonan-7-yl]acetic acid] | 21 | 203 (≈ 349 µM) | 8.51 | 2.4 | > 100000 | >32258
COC(=O)C1=C(CN2C3COCC2C(F)(F)[C@H](CC(=O)O)C3)NC(c2nccs2)=N[C@H]1c1ccc(F)cc1Cl (stereo partly drawn) [Example 126, 2-[(7S)-9-[[(4R)-4-(2-chloro-4-fluoro-phenyl)-5-methoxycarbonyl-2-thiazol-2-yl-1,4-dihydropyrimidin-6-yl]methyl]-6,6-difluoro-3-oxa-9-azabicyclo[3.3.1]nonan-7-yl]acetic acid] | 17 | > 605 | 7.99 | 0 | > 100000 | >9709
COC(=O)C1=C(CN2[C@@H]3C[C@H](CC(=O)O)C[C@H]2C(F)(F)C3)NC(c2nccs2)=N[C@H]1c1ccccc1Cl [Example 90, 2-[(1R,3S,5S)-8-[[(4R)-4-(2-chlorophenyl)-5-methoxycarbonyl-2-thiazol-2-yl-1,4-dihydropyrimidin-6-yl]methyl]-6,6-difluoro-8-azabicyclo[3.2.1]octan-3-yl]acetic acid] | 37 | 230 (≈ 417 µM) | 8.46 | 1.5 | – | –
COC(=O)C1=C(CN2C3COCC2CC(CC(=O)O)C3)NC(c2nccs2)=N[C@H]1c1ccc(F)c(F)c1Cl (stereo partly drawn) [Example 135, Endo-2-[9-[[(4R)-4-(2-chloro-3,4-difluoro-phenyl)-5-methoxycarbonyl-2-thiazol-2-yl-1,4-dihydropyrimidin-6-yl]methyl]-3-oxa-9-azabicyclo[3.3.1]nonan-7-yl]acetic acid] | 27 | 533 (≈ 940 µM) | 8.19 | 4.2 | > 100000 | >15385
CCOC(=O)C1=C(CN2[C@@H]3COC[C@H]2C[C@H](CC(=O)O)C3)NC(c2nccs2)=N[C@H]1c1cccc(F)c1Br [Example 68, Exo-2-[(1S,5R)-9-[[(4R)-4-(2-bromo-3-fluoro-phenyl)-5-ethoxycarbonyl-2-thiazol-2-yl-1,4-dihydropyrimidin-6-yl]methyl]-3-oxa-9-azabicyclo[3.3.1]nonan-7-yl]acetic acid] | 7.7 | 320 (≈ 527 µM) | 8.42 | 3.5 | – | –
COC(=O)C1=C(CN2C3COCC2C(NC(C)=O)C3)NC(c2nccs2)=N[C@H]1c1ccc(F)cc1Cl (stereo partly drawn) [Example 48, Methyl (4R)-6-[(6-acetamido-3-oxa-8-azabicyclo[3.2.1]octan-8-yl)methyl]-4-(2-chloro-4-fluoro-phenyl)-2-thiazol-2-yl-1,4-dihydropyrimidine-5-carboxylate] | 17 | 100 (≈ 187 µM) | 7.71 | 4.8 | – | –
